Experimental data taken from ChEMBL document CHEMBL3853328, “A molecular dynamics simulation investigation of the relative stability of the cyclic peptide octreotide and its deprotonated and its (CF3)-Trp substituted analogs in different solvents” (Bioorg Med Chem, 2016).

Molecular target: Somatostatin receptor type 2 (Homo sapiens, UniProt P30874)
Test: Binding affinity to human SST2 receptor

Sequence of Somatostatin receptor type 2 (P30874 whole entry): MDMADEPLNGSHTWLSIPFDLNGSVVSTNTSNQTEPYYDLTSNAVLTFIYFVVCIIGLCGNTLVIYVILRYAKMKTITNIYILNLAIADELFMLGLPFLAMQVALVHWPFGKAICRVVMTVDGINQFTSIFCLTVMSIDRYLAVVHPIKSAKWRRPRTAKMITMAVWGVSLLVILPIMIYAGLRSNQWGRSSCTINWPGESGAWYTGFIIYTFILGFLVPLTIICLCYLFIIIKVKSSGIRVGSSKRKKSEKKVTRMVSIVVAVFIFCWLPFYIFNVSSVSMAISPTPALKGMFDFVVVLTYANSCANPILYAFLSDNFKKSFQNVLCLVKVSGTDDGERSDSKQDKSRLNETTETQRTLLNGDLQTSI

C[C@@H](O)[C@H](CO)NC(=O)[C@@H]1CSSC[C@H](NC(=O)[C@H](N)Cc2ccccc2)C(=O)N[C@@H](Cc2ccccc2)C(=O)N[C@H](Cc2c(C(F)(F)F)[nH]c3ccccc23)C(=O)N[C@@H](CCCCN)C(=O)N[C@@H]([C@@H](C)O)C(=O)N1
Kd: 0.0155 µM
